Where “and” joins values, the source holds several entries; their conditions need not be identical. Equal entries are not always repeated.
Columns and labels:
native rat mGluR2 = molecular target: T1, native rat mGluR2 (Rattus norvegicus, UniProt P31421); assay: [35S]GTPγS binding assay using cortical rat brain membranes, potentiation of a selective mGluR2 agonist; type: biochemical; details: for Activity: left-ward shift of agonist mGluR2 concentration-response curve: rat cortical membranes, selective mGluR2 agonist such as LY379268, in the presence of 3 or 10 μM of positive allosteric modulator
T1 construct: from tissue; host or cells: cerebral cortex of Sprague-Dawley rats (membrane preparation)
Source text: The [^35S]GTPγS binding is a functional membrane-based assay used to study G-protein coupled receptor (GPCR) function. This method is using a binding assay to assess the initial step in receptor-mediated G protein activation in membranes prepared from cells expressing recombinant GPCR or using membranes from discrete area of the rat brain. In brief, the assay is measuring the activation of G proteins by catalyzing the exchange of guanosine 5′-diphosphate (GDP) by guanosine 5′-triphosphate (GTP) at the α subunit. The GTP-bounded G proteins dissociate into two subunits, Gα-GTP and Gβγ, which in turn regulate intracellular enzymes and ion channels. GTP is rapidly hydrolysed by the Gα-subunit (GTPases) and the G protein is deactivated and ready for new GTP exchange cycle (Harper (1998) Curr Protoc Pharmacol 2.6.1-10, John Wiley & Sons, Inc.). [^35S]GTPγS, a non-hydrolyzed analogue of GTP, is used for this purpose.
This method is widely used to study receptor activation of G protein in membranes prepared from rat brain tissue, including mGluR2 receptors (Schaffhauser et al 2003, Pinkerton et al, 2004). mGluR2 receptors are expressed in the rat brain cortex (Mutel et al (1998) J. Neurochem. 71:2558-64; Schaffhauser et al (1998) Mol. Pharmacol. 53:228-33) and are coupled to Gαi-protein, a preferential coupling for this method.
[^35S]GTPγS binding assay using cortical rat brain membranes preparation was used and adapted from Schaffhauser et al ((2003) Mol. Pharmacol. 4:798-810) for the detection of the positive allosteric modulator properties of the compounds of this invention on native rat mGluR2. In order to eliminate the possible interference with group III Gαi-protein coupled mGluRs (mGluR4, mGluR7, mGluR8; mGluR6 is not expressed in the cortex (Laurie et al (1997) Neuropharmacol. 36:145-52)), the potentiation of the response to a selective mGluR2 agonist, such as DCG-IV (Cartmell et al. (1998) Br. J. Pharmacol. 123(3):497-504) or LY379268 (Monn et al. (1999) J. Med. Chem 42:1027-40), by compounds described in the present invention was performed.
Membrane preparation. Cortices were dissected out from brains of 200-300 g Sprague-Dawley rats (Charles River Laboratories, L'Arbresle, France). Tissues were homogenized in 6 volumes (vol/wt) of 10% sucrose at 4° C. using a glass-teflon homogenizer. The homogenate was centrifuged at 1250 g for 10 min, and the supernatant was centrifuged at 40,000 g for 20 min (4° C.). The pellet was resuspended in 25 ml water using a Polytron disrupter (Kinematica AG, Luzern, Switzerland) and centrifuged for 10 min at 3000 g. (4° C.). The supernatant was centrifuged at 40,000 g for 20 min (4° C.). The supernatant was discarded and the pellet washed twice by resuspension in 10 volumes 5 mM HEPES-KOH, pH 7.4. The homogenate was frozen and thawed twice and centrifuged at 40,000 g for 20 min. The final pellet was resuspended in 5 mM HEPES-KOH, pH 7.4 and stored at −80° C. before its use. Protein concentration was determined by the Bradford method (Bio-Rad protein assay, Reinach, Switzerland) with bovine serum albumin as standard.
[^35S]GTPγS binding assay. Measurement of mGluR2 positive allosteric modulators properties in rat cortical membranes was performed as follows: rat cortical membrane (1.5 μg) were incubated in 96-well microplates for 15 min at 30° C. in assay buffer (50 mM HEPES pH 7.4, 100 mM NaCl, 5 mM MgCl2, 10 μM GDP, 10 μg/ml saponin, EGTA 0.2 mM) with increasing concentrations of positive allosteric modulator (from 1 nM to 10 μM) and a minimal concentration of DCG-IV or LY379268, a selective mGluR2 agonist, that has been determined in previous experiments and that corresponds to the EC20, a concentration that gives 20% of the maximal response of the agonist, and is in accordance to published data (Pin et al. (1999) Eur. J. Pharmacol. 375:277-294). […]

T1 sequence (P31421 19-872): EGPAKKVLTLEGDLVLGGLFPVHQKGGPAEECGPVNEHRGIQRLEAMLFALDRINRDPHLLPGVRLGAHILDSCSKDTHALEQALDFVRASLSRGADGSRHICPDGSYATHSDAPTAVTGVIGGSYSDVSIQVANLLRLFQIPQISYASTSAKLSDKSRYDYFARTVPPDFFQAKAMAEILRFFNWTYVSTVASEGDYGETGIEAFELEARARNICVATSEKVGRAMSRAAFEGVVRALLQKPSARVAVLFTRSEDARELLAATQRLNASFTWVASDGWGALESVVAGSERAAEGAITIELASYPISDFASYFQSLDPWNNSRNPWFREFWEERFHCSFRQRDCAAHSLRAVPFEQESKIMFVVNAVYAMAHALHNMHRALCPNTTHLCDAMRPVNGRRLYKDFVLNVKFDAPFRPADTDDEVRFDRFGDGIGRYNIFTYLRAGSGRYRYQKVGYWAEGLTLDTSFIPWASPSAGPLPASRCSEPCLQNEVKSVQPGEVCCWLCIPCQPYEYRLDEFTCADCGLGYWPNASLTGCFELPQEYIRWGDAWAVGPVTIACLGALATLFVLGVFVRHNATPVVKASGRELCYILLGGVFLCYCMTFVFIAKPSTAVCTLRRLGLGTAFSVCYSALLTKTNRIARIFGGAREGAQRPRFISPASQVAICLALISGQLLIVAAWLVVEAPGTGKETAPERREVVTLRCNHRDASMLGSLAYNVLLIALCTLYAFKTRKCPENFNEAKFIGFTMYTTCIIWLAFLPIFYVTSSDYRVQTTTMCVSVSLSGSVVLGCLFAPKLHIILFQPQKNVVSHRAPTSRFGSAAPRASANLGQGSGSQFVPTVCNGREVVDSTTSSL

| SMILES | melting point | increase of the [GTPi^5S] binding induced by 50 nM of DCG-IV (native rat mGluR2; 10 μM compound together with mGluR2 agonist, compared to agonist alone, Figure B) | Activity: left-ward shift of agonist mGluR2 concentration-response curve (native rat mGluR2) | agonistic activity when tested in the absence of 50 nM DCG-IV (native rat mGluR2; 10 μM compound, compared to buffer value (0% of maximal response), Figure B) |
| --- | --- | --- | --- | --- |
| Cc1nc(NCc2ccccc2)c2cc(C)sc2n1 [Compound 5, N-benzyl-2,6-dimethylthieno[2,3-d]pyrimidin-4-amine] | 124.2 °C | – | + (left-ward shift of agonist mGluR2 concentration-response curve [<2-fold]) | – |
| COc1ccc(CCNc2nc(C)nc3sc(C)cc23)cc1 [Compound 28, N-(4-methoxyphenethyl)-2,6-dimethylthieno[2,3-d]pyrimidin-4-amine] | 129 °C | significantly potentiated | – | no statistically significant agonistic activity |
| Cc1nc(NCCc2ccc(N)cc2)c2cc(C)sc2n1 [Compound 42, N-(4-aminophenethyl)-2,6-dimethylthieno[2,3-d]pyrimidin-4-amine] | 127 °C | – | ++ (left-ward shift of agonist mGluR2 concentration-response curve [2- to 3.5-fold]) | – |
| CC(=O)Nc1ccc(CCNc2nc(C)nc3sc(C)cc23)cc1 [Compound 43, N-(4-(2-(2,6-dimethylthieno[2,3-d]pyrimidin-4-ylamino)ethyl)-phenyl)acetamide] | 248 °C | – | ++ (left-ward shift of agonist mGluR2 concentration-response curve [2- to 3.5-fold]) | – |
| Cc1nc(NCCc2ccc(OCc3nn[nH]n3)cc2)c2cc(C)sc2n1 [Compound 46, N-(4-((2H-tetrazol-5-yl)methoxy)phenethyl)-2,6-dimethylthieno[2,3-d]pyrimidin-4-amine] | 205 °C | – | +++ (left-ward shift of agonist mGluR2 concentration-response curve [>3.5-fold]) | – |
| Cc1nc(NCCc2cccnc2)c2cc(C)sc2n1 [Compound 49, 2,6-dimethyl-N-(2-(pyridin-3-yl)ethyl)thieno[2,3-d]pyrimidin-4-amine] | 138 °C | – | + (left-ward shift of agonist mGluR2 concentration-response curve [<2-fold]) | – |
| COc1ccc(CCNc2nc(C)nc3sc(Cc4ccccc4)cc23)cc1 [Compound 61, N-(4-methoxyphenethyl)-6-benzyl-2-methylthieno[2,3-d]pyrimidin-4-amine] | – | – | ++ (left-ward shift of agonist mGluR2 concentration-response curve [2- to 3.5-fold]) | – |
| CCc1cc2c(NCCc3ccc(OC)c(OC)c3)nc(C)nc2s1 [Compound 73, N-(3,4-dimethoxyphenethyl)-6-ethyl-2-methylthieno[2,3-d]pyrimidin-4-amine] | 78 °C | – | – | – |
| CCCc1cc2c(NCc3cccc(OC)c3)ncnc2s1 [Compound 77, N-(3-methoxybenzyl)-6-propylthieno[2,3-d]pyrimidin-4-amine] | 118 °C | – | – | – |
| CCCc1cc2c(NCCc3ccc(O)cc3)ncnc2s1 [Compound 82, 4-(2-(6-propylthieno[2,3-d]pyrimidin-4-ylamino)ethyl)phenol] | 123.5 °C | – | +++ (left-ward shift of agonist mGluR2 concentration-response curve [>3.5-fold]) | – |
| CCCc1cc2c(NCCc3ccc(O)cc3)nc(OC)nc2s1 [Compound 83, 4-(2-(2-methoxy-6-propylthieno[2,3-d]pyrimidin-4-ylamino)ethyl)phenol] | 79 °C | – | – | – |
| CCCc1cc2c(NCCc3ccc(O)cc3)nc(Cl)nc2s1 [Compound 84, 4-(2-(2-chloro-6-propylthieno[2,3-d]pyrimidin-4-ylamino)ethyl)phenol] | 135 °C | – | – | – |
| CCCc1cc2c(NCCc3ccc(OC)cc3)ncnc2s1 [Compound 85, N-(4-methoxyphenethyl)-6-propylthieno[2,3-d]pyrimidin-4-amine] | 102 °C | – | – | – |
| CCCc1cc2c(NCCc3ccc(OC)cc3)nc(OC)nc2s1 [Compound 86, N-(4-methoxyphenethyl)-2-methoxy-6-propylthieno[2,3-d]pyrimidin-4-amine] | 92 °C | – | – | – |
| CCCc1cc2c(NCCc3ccc(OC)c(OC)c3)ncnc2s1 [Compound 87, N-(3,4-dimethoxyphenethyl)-6-propylthieno[2,3-d]pyrimidin-4-amine] | 128.5 °C | – | – | – |
| CCCc1cc2c(NCCc3ccc(OCc4nnn[nH]4)cc3)nc(OC)nc2s1 [Compound 88, N-(4-((1H-tetrazol-5-yl)methoxy)phenethyl)-2-methoxy-6-propylthieno[2,3-d]pyrimidin-4-amine] | 181 °C | – | – | – |
| CCCc1cc2c(NCCNc3ccccc3)ncnc2s1 [Compound 89, N-(2-(phenylamino)ethyl)-6-propylthieno[2,3-d]pyrimidin-4-amine] | 68 °C | – | – | – |
| COc1cccc(CNc2ncnc3sc(C(C)C)cc23)c1 [Compound 91, N-(3-methoxybenzyl)-6-isopropylthieno[2,3-d]pyrimidin-4-amine] | 65 °C | – | – | – |
| COc1ccc(CCNc2ncnc3sc(C(C)C)cc23)cc1 [Compound 93, N-(4-methoxyphenethyl)-6-isopropylthieno[2,3-d]pyrimidin-4-amine] | 108.5 °C | – | – | – |

Continued, in another order:

| melting point | increase of the [GTPi^5S] binding induced by 50 nM of DCG-IV (native rat mGluR2; 10 μM compound together with mGluR2 agonist, compared to agonist alone, Figure B) | SMILES | Activity: left-ward shift of agonist mGluR2 concentration-response curve (native rat mGluR2) | agonistic activity when tested in the absence of 50 nM DCG-IV (native rat mGluR2; 10 μM compound, compared to buffer value (0% of maximal response), Figure B) |
| --- | --- | --- | --- | --- |
| 138.5 °C | – | COc1nc(NCCc2ccccc2)c2cc(C)sc2n1 [Compound 15, 2-methoxy-6-methyl-N-phenethylthieno[2,3-d]pyrimidin-4-amine] | +++ (left-ward shift of agonist mGluR2 concentration-response curve [>3.5-fold]) | – |
| 155 °C and 155 to 155.5 °C | – | OCc1cc2c(NCCc3ccccc3)ncnc2s1 [Compound 58, (4-(phenethylamino)thieno[2,3-d]pyrimidin-6-yl)methanol] | ++ (left-ward shift of agonist mGluR2 concentration-response curve [2- to 3.5-fold]) | – |
| 124.5 °C | – | CCc1cc2c(NCCCc3ccccc3)ncnc2s1 [Compound 75, 6-ethyl-N-(3-phenylpropyl)thieno[2,3-d]pyrimidin-4-amine] | ++ (left-ward shift of agonist mGluR2 concentration-response curve [2- to 3.5-fold]) | – |
| 110.5 °C | – | CCCc1cc2c(NCCc3ccccc3)ncnc2s1 [Compound 79, N-phenethyl-6-propylthieno[2,3-d]pyrimidin-4-amine] | +++ (left-ward shift of agonist mGluR2 concentration-response curve [>3.5-fold]) | – |
| 162 °C | – | CCCc1cc2c(NCCc3ccccc3)nc(NC)nc2s1 [Compound 81, N2-methyl-N4-phenethyl-6-propylthieno[2,3-d]pyrimidine-2,4-diamine] | – | – |
| 117.5 °C | – | CC(C)c1cc2c(NCCc3ccccc3)ncnc2s1 [Compound 92, 6-isopropyl-N-phenethylthieno[2,3-d]pyrimidin-4-amine] | – | – |
| 95 °C | – | CCCCc1cc2c(NCCc3ccccc3)ncnc2s1 [Compound 94, 6-butyl-N-phenethylthieno[2,3-d]pyrimidin-4-amine] | – | – |
| 88 °C | – | CCc1cc2c(NCCc3ccccc3)ccnc2s1 [Compound 96, 2-ethyl-N-phenethylthieno[2,3-b]pyridin-4-amine] | +++ (left-ward shift of agonist mGluR2 concentration-response curve [>3.5-fold]) | – |

From patent US20070275984A1, “Novel Thieno-Pyridine and Thieno-Pyrimidine Derivatives and Their Use as Positive Allosteric Modulators of Mglur2-Receptors” (JANSSEN PHARMACEUTICA N.V., priority 2004, published 2007)
